Patent US12440519B2 (Iowa State University Research Foundation, Inc., priority 2017, dated 2025)
pEC50: −log10 of the molar value.

Tests used:
L-DOPA decarboxylase = assay: Carbidopa inhibition of dopamine production by ML1082 in sSIM; type: cell-based, E. faecium; details: strain ML1082, sSIM
Method: A L-DOPA rich diet or a commonly prescribed 100 mg dose of L-DOPA would yield a concentration of about 1.0×10^−3 M concentration in sSIM. It follows then that a tablet that has 1:10 Carbidopa:L-DOPA tablet would likely result in a Carbidopa concentration of approximately 1/10th that on the order of 1.0×10^−4M (−log [Carbidopa]=4).
The IC50 was similar to the L-DOPA concentration of 1.26×10^−3 M, a finding that may indicate a competitive inhibitory mechanism for the bacterial enzyme.

[1] = mice, L-DOPA source in feed
Method: Feed was prepared in one of two ways depending on the source of L-DOPA. […] For purified L-DOPA, 1 g of purified L-DOPA is mixed in a 1:200 ratio with the feed powder. The mixed feed is then added to additional feed powder in a 1:4 ratio, creating a 1 mg/g L-DOPA feed.
For the 12-day trial 10 mice were placed in each group of control mice given feed plus the PBS gavage, a probiotic supplemented diet of normal feed plus a 1×10^9 CFU gavage of ML1082, and a synbiotic diet of feed with 1 mg/g supplemented pure L-DOPA and a 1×10^9 CFU gavage of ML1082. Behavioral testing was performed on days 11 and 12 (see below), followed by sacrifice and sample collection for UHPLC-ECD as above.

distal colon = details: read-out: EC50 of maximal response; cited from earlier work
E. coli = tested on: E. coli
Text: Although this is a well-established finding, the chemical-mechanistic effects of catecholamines on prokaryotes are relatively poorly understood. Neurochemical exposure has the potential not only to alter growth profiles and behavior, but it also appears to trigger the production of unique chemicals.

longitudinal muscle = details: read-out: EC50, relaxation; cited from earlier work
circular muscle = details: read-out: EC50, induced contractions; cited from earlier work

**Q.** Which “inhibition of dopamine production” value (L-DOPA decarboxylase) does the source give for `C[C@@](Cc1ccc(O)c(O)c1)(NN)C(=O)O` [Carbidopa] here?
**A.** dose-dependent inhibition

**Q.** With `N[C@@H](Cc1ccc(O)c(O)c1)C(=O)O` [L-DOPA, L-3,4-dihydroxyphenylalanine] as the compound, how does the “uptake of L-DOPA into the body before conversion by the probiotic” value [1] read?
**A.** absorbed into the body before it could interact with the probiotics

**Q.** Which results are given for `NCCc1ccc(O)c(O)c1` [dopamine]?
**A.** pEC50 (distal colon): 4.70; production of the dopamine-induced compound by E. coli (E. coli; LB supplied with dopamine, FIG. 6F): little if any of this compound; chemical response of E. coli (E. coli; sSIM spiked with 0.001 M dopamine): novel chemical response; pEC50 (longitudinal muscle): 4.54; pEC50 (circular muscle): 5.20
